How the values were obtained:
[1] = tested on: wild-type BL21 (DE3, pLysS) strain; experiment: Toxicity test of ICP in E. coli (growth curve, turbidity at 660 nm); assay type: cell-based; conditions: 100 ng/ml ICP, LB medium, 27° C. overnight, versus medium without ICP
Protocol: The BL21 (DE3, pLysS) strain was cultured at 30° C. overnight on an LB agar medium plate containing 37 μg/ml of chloramphenicol. The generated colonies were picked with a toothpick, inoculated and cultured in a 4 ml of the LB liquid culture medium containing 37 μg/ml of chloramphenicol at 27° C. overnight. 40 μl of this pre-cultured medium was inoculated and cultured in a 4 ml of the liquid culture medium containing 37 μg/ml of chloramphenicol and 100 ng/ml of ICP at 27° C. overnight, with measuring the time course of turbidity change using Mini photo 518R (TAITEC CORPORATION) at 660 nm.

[2] = tested on: VH-cpBLA-VL/pET26/BL21 strain; experiment: Growth assay using VH-cpBLA-VL expressing strain; assay type: cell-based, E. coli; conditions: 100 μg/ml ampicillin LB medium
Protocol: Also, for the growth assay, ICP which is the target antigen of this antibody-enzyme fusion protein, and the thiacloprid (TCP) which is an analog of ICP with a lower cross-reactivity than ICP were used. In further detail, the assay was performed by the following procedures.
First, the strain expressing VH-cpBLA-VL (antibody-enzyme fusion protein) was prepared.
0.5 μg of VH-cpBLA-VL/pET26 was used for transformation of 100 μl of the BL21 (DE3, pLysS) strain (F-, ompT, hsdSB, (rB-, mB-), dcm, gal, λ(DE3), pLysS, Cmr), and the transformed cells were cultured on an LB agar medium plate containing 50 μg/ml of kanamycin and 37 μg/ml of chloramphenicol at 30° C. overnight, to prepare an antibody-enzyme fusion protein expressing strain (VH-cpBLA-VL/pET26/BL21 strain). After the overnight culture, colonies generated on the above-mentioned LB agar medium plate were picked with a toothpick, inoculated and cultured in a 4 ml of the LB liquid culture medium plate containing 50 μg/ml of kanamycin and 37 μg/ml of chloramphenicol at 27° C. overnight. 4 μl of this pre-cultured medium was inoculated and cultured in 4 ml of the LB liquid culture medium containing 50 μg/ml of kanamycin and 37 μg/ml of chloramphenicol, 1 mM of IPTG, 0 or 100 μg/ml ampicillin, 0 to 10 ng/ml of ICP or TCP at 27° C. for 33 hours, with measuring the time course of turbidity change using Mini photo 518R at 660 nm.

[3] = tested on: VH-split•cpBLA-VL/pET26/C43 strain; experiment: Growth assay using VH-split•cpBLA-VL expressing strain; assay type: cell-based, E. coli
Protocol: (§1) By applying the assay of the above-mentioned Example 6, VH-split•cpBLA-VL/pET26 was used instead of VH-cpBLA-VL/pET26, and the E. coli C43 (DE3) strain (Lucigen Corporation) suitable for overexpression of a highly toxic protein was used instead of the BL21 (DE3, pLysS) strain, to investigate the expression in the strains. To be specific, 0.5 μg of VH-split•cpBLA-VL/pET26 was used for transformation for the C43 (DE3) strain, and the transformed cells were cultured on a LB agar medium plate containing 50 μg/ml of kanamycin at 30° C. overnight, and the VH-split•cpBLA-VL expressing strain (VH-split•cpBLA-VL/pET26/C43 strain) was prepared. After overnight culture, the colonies generated on the above-mentioned LB agar medium plate were picked with a toothpick, inoculated and cultured in a 4 ml of the LB liquid medium containing 50 […] (LBK) at 27° C. overnight. 10 μl of this pre-cultured medium was inoculated in 1 ml of the LBK liquid medium containing 1 mM of IPTG, 0 or 10 μg/ml of ampicillin, 10 ng/ml of ICP or TCP. After the cells were cultured at 27° C. for 45 hours, the turbidity was measured using Mini photo 518R at 660 nm.

[4] = tested on: antibody-enzyme fusion protein (VH-cpBLA-VL); experiment: β-lactamase activity change of VH-cpBLA-VL with chromogenic substrate Nitrocefin; assay type: biochemical; conditions: 5 μl of 10 μg/ml antigen, 1 mM Nitrocefin, room temperature 18 hours
Protocol: First, 5 μl of the concentrated VH-cpBLA-VL protein solution prepared in Example 9, 5 μl of 10 μg/ml ICP or TCP, and 90 μl of PBS containing 1 mM of Nitrocefin were mixed, and left in a dark place at a room temperature for 18 hours. Then, the absorbance at 490 nm of the reaction solution was measured to investigate the change in the β-lactamase activity. Further, absorbance at 490 nm was also measured when PBS was used instead of ICP or TCP (the item “PBS” in FIG. 12), or when VH-cpBLA-VL protein solution was not added (the item “Nitrocefin” in FIG. 12). […] In other words, the ICP-dependent increase of β-lactamase activity was observed.

[5] = tested on: antibody-enzyme fusion protein (VH-cpBLA-VL); experiment: β-lactamase activity change of VH-cpBLA-VL with fluorogenic substrate Fluorocillin; assay type: biochemical; conditions: 5 μl of 10 μg/ml antigen, 10 μM Fluorocillin, room temperature 30 minutes
Protocol: Next, a similar experiment was performed using a fluorogenic substrate Fluorocillin instead of the chromogenic substrate Nitrocefin. Specifically, 5 μl of concentrated VH-cpBLA-VL protein solution prepared in Example 9, and 5 of 10 μg/ml ICP or TCP were mixed, and incubated at 4° C. for 30 minutes. Then, 90 μl of PBS containing 10 μM Fluorocillin was added, and incubated at a room temperature for 30 minutes. The fluorescence at 535 nm with 435 nm excitation was measured using a microplate reader Genios Pro (Tecan Japan Co., Ltd.). […] In other words, the increase of the ICP-dependent β-lactamase activity was observed.

[6] = tested on: antibody-enzyme fusion protein (VH-cpBLA-VL(219)); experiment: Activity assay of VH-cpBLA-VL(219) using Fluorocillin; assay type: biochemical; conditions: triplicate; for change in signal intensity (fluorescence): antigen final concentration 1 μg/ml, compared with PBS
Protocol: Activity of the above prepared antibody-enzyme fusion protein (VH-cpBLA-VL(219)) was assayed using Fluorocillin. The antigen peptide BGP-C7 at a final concentration of 0-2000 ng/ml and the antibody-enzyme fusion protein at a final concentration of 300 nM were mixed in 50 μl of PBS, and the mixture was dispensed into black microplate wells. After adding 50 μL of 2 μM Fluorocillin in PBS, the mixture was incubated at 28° C. for 60 minutes, and read for its fluorescence intensity (intensity at 535 nm with excitation light irradiation at 485 nm). Also, control experiments were performed without antibody-enzyme fusion protein, and the fluorescence intensity of these wells was used for background subtraction. […] For information, the measurement of the present experiment was performed in triplicate. Black circles in FIG. 14 indicate the average value of the measured values and the error bars indicate 1SD.
Further, similar experiments were performed using a substance other than BGP-C7 (BGP-C8, BGP-C10, ICP, TCP with each final concentration of 1 μg/ml) as antigens.

[7] = tested on: cpBLA/pET26/BL21 strain or cpBLA/pET26/C43 strain; experiment: Growth assay using cpBLA expressing strain; assay type: cell-based, E. coli
Protocol: as §1

[8] = ELISA for antigen binding ability of the antibody-enzyme fusion protein; conditions: ICP-BSA versus BSA coated plates
Protocol: The following ELISA assay was performed to confirm whether the antibody-enzyme fusion protein (VH-cpBLA-VL) actually has a binding activity to the antigen (ICP).
PBS solution containing 10 μg/ml of ICP-BSA or BSA was dispensed into Falcon 3912 microplates by 100 μl each, and left at 4° C. for 16 hours. After discarding the solution from the microplates, 200 μl of PBS including 25% of Immunoblock was added and left at a room temperature for 2 hours for blocking. Next, after washing the microplates with PBS-T, […] of the purified antibody-enzyme fusion protein (VH-cpBLA-VL) prepared in the above-mentioned Example 9 and 100 μl of PBS containing 5% Immunoblock were added, and left at a room temperature for 90 minutes. In order to detect the antibody-enzyme fusion protein (VH-cpBLA-VL) bound to the solid-phase by the above preparation, the microplates were washed with PBS-T, and added with HRP labeled Penta-His (QIAGEN K.K., Tokyo) diluted in 1/2000 in PBS containing 5% Immunoblock. […] After incubation for 5 minutes in a dark place, the reaction was stopped by adding 50 μl of 3.2 N of H2SO4, and the absorbance was measured with a platereader (450 nm).
Also, the above-mentioned ELISA was applied for VH-split•cpBLA-VL(VH-BLAc and BLAn-VL) or cpBLA instead of using VH-cpBLA-VL, and the absorbance was measured similarly. […]

[9] = less than 100 μg/ml ICP or TCP added

For `O=[N+]([O-])NC1=NCCN1Cc1ccc(Cl)nc1` [ICP, imidacloprid], the “toxicity or growth-promoting activity in E. coli” value [1] was “no toxicity or growth-promoting activity”, the “time after initiation of measurement from which growth was observed” value ([2]; ICP at 1 ng/ml) was “about 30 hours” and the “growth of expressing strain (turbidity at 660 nm)” value (“growth … (turbidity at 660 nm)” below) ([2]; antigen at 1 ng/ml) was “dose-dependent growth”. The “growth … (turbidity at 660 nm)” value ([2]; antigen at 5 to 10 ng/ml) was “dose-dependent growth”, the “growth … (turbidity at 660 nm)” value ([3]; 10 μg/ml ampicillin, 10 ng/ml antigen, 27° C., 45 hours) was “ICP dependent-growth” and the “growth … (turbidity at 660 nm)” value [3, 9] was “no significant growth”. For the same molecule, the “change in β-lactamase activity (absorbance at 490 nm)” value [4] was “significant signal increase”, the “change in β-lactamase activity (fluorescence at 535 nm)” value [5] was “significant signal increase” and the “change in signal intensity (fluorescence)” value (“change in signal intensity” below) [6] was “only the same signal intensity as PBS”.

For `N#C/N=C1\SCCN1Cc1ccc(Cl)nc1` [TCP, thiacloprid], the “time after initiation of measurement from which growth was observed” value ([2]; TCP, later than ICP of the same concentration) was “about 30 hours”, the “growth … (turbidity at 660 nm)” value ([2]; antigen at 10 ng/ml, similar to 1 ng/ml ICP) was “significant growth” and the “growth … (turbidity at 660 nm)” value [3, 9] was “no significant growth”. The “change in β-lactamase activity (absorbance at 490 nm)” value [4] was “slight significant signal increase” and the “change in signal intensity” value [6] was “only the same signal intensity as PBS”.

For “BGP-C7: antigen peptide (osteocalcin C-terminal peptide) recognised by antibody KTM219 (RRFYGPV)”, the “change in fluorescence intensity (535 nm)” value ([6]; antigen 0-2000 ng/ml, 300 nM fusion protein, dose-dependent) was “significant increase of the fluorescence intensity”.

For “BGP-C8: BGP peptide detectable by open sandwich ELISA with KTM219 (YRRFYGPV)”, the “change in signal intensity” value [6] was “increase of the signal intensity”.

For “BGP-C10: BGP peptide detectable by open sandwich ELISA with KTM219 (EAYRRFYGPV)”, the “change in signal intensity” value [6] was “increase of the signal intensity”.

B1: cpBLA: circularly permutated β-lactamase without antibody domains (SEQ ID NO: 13), control (protein, listed as Escherichia coli)
chain: NEAIPNDERDTTMPAAMATTLRKLLTGELLTLASRQQLIDWMEADKVAGPLLRSALPAGWFIADKSGAGERGSRGIIAALGPDGKPSRIVVIYTTGSQATMDERNRQIAEIGASLIKHWDKSHPETLVKVKDAEDQLGARVGYIELDLNSGKILESFRPEERFPMMSTFKVLLCGAVLSRIDAGQEQLGRRIHYSQNDLVEYSPVTEKHLTDGMTVRELCSAAITMSDNTAANLLLTTIGGPKELTAFLHNMGDHVTRLDRWEPELNEA
For B1, the “growth of expressing strain” value ([7]; ampicillin added) was “growth was not observed in any of the samples”, the “growth of expressing strain” value ([7]; ampicillin not added) was “growth was observed regardless of the presence or absence of the antigen” and the antigen-dependent growth ([7]; any of the cpBLA expressing strains) was “antigen-dependent growth was not observed”. For the same molecule, the “ELISA signal regardless of the presence or absence of ICP (antigen)” value [8] was “similarly low signal”.
